# Results as given in publication PMC5509420 (Molecular Biology of the Cell, 2017).
# Substitutions are numbered along the chain they refer to.
# Assays:
# Sse1 [1] = molecular target: T1, Sse1 (Saccharomyces cerevisiae, UniProt P32589, F439L/L433A/M441A/N434P); assay: fluorescence polarization/anisotropy, saturation binding one-site fit
# T1 sequence (P32589 2-693 L433A/N434P/F439L/M441A): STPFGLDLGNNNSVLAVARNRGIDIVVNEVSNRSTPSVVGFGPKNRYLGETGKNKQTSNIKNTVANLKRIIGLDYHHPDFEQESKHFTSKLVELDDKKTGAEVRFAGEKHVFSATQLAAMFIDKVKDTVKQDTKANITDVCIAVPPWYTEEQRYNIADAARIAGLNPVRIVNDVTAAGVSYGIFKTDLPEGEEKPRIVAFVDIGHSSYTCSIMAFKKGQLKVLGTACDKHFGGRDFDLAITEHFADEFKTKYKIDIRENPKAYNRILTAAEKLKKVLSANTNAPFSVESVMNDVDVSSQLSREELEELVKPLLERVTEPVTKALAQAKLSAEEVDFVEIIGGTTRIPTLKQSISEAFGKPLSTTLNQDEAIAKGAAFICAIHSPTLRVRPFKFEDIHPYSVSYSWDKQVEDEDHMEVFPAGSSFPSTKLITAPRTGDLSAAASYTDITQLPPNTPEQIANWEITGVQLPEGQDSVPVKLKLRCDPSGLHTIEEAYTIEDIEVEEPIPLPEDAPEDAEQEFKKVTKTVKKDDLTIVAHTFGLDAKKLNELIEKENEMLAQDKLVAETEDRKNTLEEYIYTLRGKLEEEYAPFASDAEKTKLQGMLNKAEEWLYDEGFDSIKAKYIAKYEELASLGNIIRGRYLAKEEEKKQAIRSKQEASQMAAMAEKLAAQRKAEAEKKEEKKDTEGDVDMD
# Sse1 [2] = molecular target: T2, Sse1 (Saccharomyces cerevisiae, UniProt P32589); assay: as above
# T2 sequence (P32589 2-693): T1 sequence (P32589 2-693 L433A/N434P/F439L/M441A) with A432L, P433N, L438F, A440M
smiles,measurement,setting,value
O=C(NCCCCCCNc1ncnc2c1ncn2[C@@H]1O[C@H](COP(=O)(O)OP(=O)(O)OP(=O)(O)O)[C@@H](O)[C@H]1O)c1ccc2c(c1)C(=O)OC21c2ccc(O)cc2Oc2cc(O)ccc21 [N^6-(6-amino)hexyl-ATP-5-FAM],Kd,Sse1 [1],12.1 ± 1.9 µM
same,Kd,Sse1 [2],8.6 ± 1.4 µM
